Source: patent publication US20240201204A1, “Biomarker and Druggable Target of Neurodegeneration” (University Hospitals Cleveland Medical Center, priority 2020, published 2024)

Experiments:
tau = assay: Tau mislocalization after TBI (tau and NeuN immunohistochemistry); format: in vivo, mouse
Method: (§1) Drug preparation and administration: CGP3466B (Sigma-Aldrich, SML1941) was dissolved in DMSO and then diluted in sterile saline. The final working stock was 0.0014 mg/ml for administering the 0.014 mg/kg dose. Intraperitoneal administration of CGP3466B was initiated 15 min or 24 h after injury, and tissues were harvested 6 h (for SNO-GAPDH, SNO-SIRT1 measurement) or 2 weeks (for ac-tau measurement) later, respectively. Salsalate (AdipoGen, AG-CR1-3574) was dissolved in DMSO and then diluted in sterile PBS. The final working stocks were as follows: 2.5 mg/ml (25 mg/kg dose), 1 mg/ml (10 mg/kg dose), 0.5 mg/ml (5 mg/kg dose). Daily intraperitoneal administration of salsalate was initiated 24 hr after injury and continued throughout behavioral testing. P7C3-A20 and FK866 (Sigma-Aldrich, F8557) were first dissolved in 1 vol of DMSO, followed by addition of 4 vol of Kolliphor and vigorously vortexing. The solution was then diluted with 30 vol of filtered 5% dextrose (pH 7.0). EX527 (Selleckchem, S1541) was dissolved in 1% DMSO+30% polyethylene glycol+1% Tween 80. Daily intraperitoneal administration of P7C3-A20 was initiated 24 hr after poly-traumatic brain injury. EX527 (10 mg/kg) was administer once a day and FK866 was treated twice per day, with the first injection given at the same time as P7C3-A20 (20 mg/kg) and the second injection given 6 h later (LoCoco et al., 2017 eLife). Diflunisal was first dissolved in 1 vol of DMSO, followed by addition of 2 vol of Kolliphor and vigorously vortexing. The solution was then diluted with 7 vol of saline to the appropriate concentration for administration at 25, 50, or 100 mg/kg.
(§2) The pressure in the side not containing the mouse was increased to cause membrane rupture at 20 pounds per square inch (PSI), which generates an about 1-2 ms jet airflow of 137.9+/−13.79 kPa that passes through the animal's head. The head remains untethered in a padded holder, while the body is fully shielded by a metal tube. The jet of air produced upon membrane rupture provides a concussive injury, which is followed by acceleration/deceleration of the head and then exposure to the ensuing blast wave within an enclosed space.
Immunohistochemistry: Mice were transcardially perfused with cold 1× phosphate-buffered saline (PBS) followed by 4% paraformaldehyde in PBS at pH 7.4 under anesthesia. Brains were carefully removed and post-fixed in 4% paraformaldehyde overnight at 4° C. Brains were immersed in 30% sucrose in PBS for 72 h at 4° C. and then rapidly frozen in 2-methylbutane pre-cooled to −20° C. with dry ice. Brains were cut coronally (40 μm) and sections were stored in cryoprotective solution (150 mM Ethylene glycol, 100 mM glycerol, 250 mM PBS) at −20° C. […]

axon initial segment = assay: Axon initial segment (AIS) degradation after TBI (AnkG, βIV-spectrin staining); format: in vivo, mouse
Method: as §1, §2
Immunohistochemistry: Mice were transcardially perfused with cold 1× phosphate-buffered saline (PBS) followed by 4% paraformaldehyde in PBS at pH 7.4 under anesthesia. Brains were carefully removed and post-fixed in 4% paraformaldehyde overnight at 4° C. Brains were immersed in 30% sucrose in PBS for 72 h at 4° C. and then rapidly frozen in 2-methylbutane pre-cooled to −20° C. with dry ice. Brains were cut coronally (40 μm) and sections were stored in cryoprotective solution (150 mM Ethylene glycol, 100 mM glycerol, 250 mM PBS) at −20° C. For tau and NeuN staining, sections were washed three times with PBS for 5 min and then treated with 0.2% Triton X-100 in PBS for 15 min. Sections were washed with PBS and then incubated with 100 mM glycine for 15 min. After blocking sections using blocking buffer (1% bovine serum albumin, 10% normal goat serum, 0.3 M glycine) for 30 min, primary antibodies (Tau, Invitrogen, #13-6400, 1:100, NeuN, EMD Millipore Cor., #MABN-140, 1:500) were incubated overnight at 4° C. Sections were washed three times with PBS (5 min each) and then incubated with Alexa Fluor 488 goat anti-mouse (Invitrogen, A11001, 1:200) or Alexa Fluor 568 goat anti-rabbit (Life technologies, A11011, 1:200) at room temperature for 2 h. […]

NAD^+ = assay: Brain NAD+ measurement after TBI; format: in vivo, mouse
Method: as §1, with “Diflunisal was first dissolved in 1 vol of DMSO, followed by addition of 2 vol of Kolliphor and vigorously vortexing. The solution was then diluted with 7 vol of saline to the appropriate concentration for administration at 25, 50, or 100 mg/kg.” left out

GAPDH = biological target: T1, GAPDH (Mus musculus, UniProt P16858); assay: S-nitrosylation of GAPDH after TBI (SNO-resin assisted capture, western blot); format: in vivo; settings: P7C3-A20 treatment after TBI
T1 construct: from tissue; host or cells: cerebral cortex of C57BL/6J mice after TBI
T1 sequence (P16858 whole entry): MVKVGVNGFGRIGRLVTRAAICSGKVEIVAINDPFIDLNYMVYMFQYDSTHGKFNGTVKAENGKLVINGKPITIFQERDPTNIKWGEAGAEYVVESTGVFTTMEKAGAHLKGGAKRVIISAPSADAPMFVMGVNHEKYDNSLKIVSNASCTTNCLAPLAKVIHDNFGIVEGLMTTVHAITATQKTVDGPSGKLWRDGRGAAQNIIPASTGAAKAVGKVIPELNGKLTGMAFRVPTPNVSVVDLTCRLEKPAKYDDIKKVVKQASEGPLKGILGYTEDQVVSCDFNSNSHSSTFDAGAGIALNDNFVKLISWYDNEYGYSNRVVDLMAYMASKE
Method: as §1, with “The solution was then diluted with 7 vol of saline to the appropriate concentration for administration at 25, 50, or 100 mg/kg.” left out
SNO-resin assisted capture (SNO-RAC): SNO-RAC was performed as described previously (Forrester, 2009). […] After two times centrifugation (20,000 g at 4° C. for 20 min), protein concentration of supernatants was determined using Coomassie protein assay (Thermo Scientific, #1856210). […] SNO-proteins were then eluted with 2× Laemmli Sample Buffer (Bio-Rad Laboratories, Inc., #1610737) with 10% beta-mercaptoethanol (Bio-Rad Laboratories, Inc., #1610710) and analyzed by SDS-PAGE and immunoblotting.

[1] = test system: dementia, minor cognitive impairment, cognitive decline; settings: about 19,000 subjects, placebo-controlled; cited from earlier work
p300/CBP = settings: literature (Shirakawa et al., 2016); cited from earlier work
[2] = co-treatment with P7C3-A20, EX527 10 mg/kg once a day, FK866 twice per day
[3] = P7C3-A20 daily IP from 24 h after TBI

Question: What does the source list for `O=C(/C=C/c1cccnc1)NCCCCC1CCN(C(=O)c2ccccc2)CC1` [FK866]?
Answer: effect on P7C3-A20 protection from post-TBI tau mislocalization (tau; [2]): This protective effect is blocked; effect on P7C3-A20 protection from post-TBI AIS degradation (axon initial segment; [2]): This protective effect is blocked; effect on P7C3-A20 rescue of NAD^+ levels (NAD^+; FK866 twice per day, co-administered with P7C3-A20 after TBI): blocked

Question: Which post-TBI tau mislocalization (tau; [3]) does the source give for `COc1cccc(NCC(F)Cn2c3ccc(Br)cc3c3cc(Br)ccc32)c1` (stereo not drawn) [P7C3-A20, 3,6-dibromo-β-fluoro-N-(3-methoxyphenyl)-9H-carbazole-9-propanamine] here?
Answer: protects mice from post-TBI tau mislocalization

Question: And the SNO-GAPDH (GAPDH)?
Answer: SNO-GAPDH is not affected

Question: What about the “post-TBI AIS degradation” value (axon initial segment; [3]) of the same compound?
Answer: protects mice from post-TBI AIS degradation

Question: And the “brain NAD^+ levels” value (NAD^+; P7C3-A20 daily IP from 24 h after TBI, cerebral cortex)?
Answer: rescued normal NAD^+ levels after TBI

Question: For `CC(=O)Oc1ccccc1C(=O)O` [aspirin], which “incidence of dementia, minor cognitive impairment, or cognitive decline” value [1] is on record?
Answer: does not significantly reduce the incidence of dementia, minor cognitive impairment, or cognitive decline

Question: What about the “inhibition of p300/CBP” value (p300/CBP) of the same compound?
Answer: does not inhibit p300/CBP
